From patent US4567201A, “Diphenoxypropane derivatives and compositions of antiasthmatic and antiinflammatory agents thereof” (Takeda Chemical Industries, Ltd., priority 1981, dated 1986)
Where two headings read alike, the source gives them in different places.

Tests used:
[1] = tested on: leukotriene D4 (LTD4)-induced contraction of the guinea pig ileum; assay: Anti-SRS-A activity: inhibition of LTD4-induced contraction of guinea pig ileum; conditions: 50% inhibition of LTD4-induced contraction (60-70% of maximum contraction), drug added 1 minute before LTD4
From the text: The present inventors studied the antagonistic action of compound (I)-A against SRS-A using a synthetic LTD4 in the following manner.
The inhibitory effect of the drug on the contractile response (60-70% of maximum contraction) of the ileum of guinea pig (body weight 300-350 g, female and male) to leukotriene D4 (LTD4) was investigated. In Tyrode solution containing atropine (10^-7 M) and mepyramine (10^-6 M), 3×10^-10 or 10^-9 M of LTD4 was repeatedly permitted to act on the guinea pig ileum and after the amplitude of contraction had become constant, a solution of the test drug was added to a final concentration of 10^-9 to 10^-4 M. After 1 minute, the same concentration of LTD4 was further added and the anti-SRS-A activity of the drug was calculated from the change in contraction amplitude by means of the following equation. [formula]
To obtain the IC50 value, the mole concentration of the drug showing a 50% inhibition of the contractile response was determined from plots on a graph.
The drug was used as dissolved in dimethyl sulfoxide. The solvent was used in an amount less than 1% which would not exert any influence on the ileum.

[2] = tested on: bronchoconstriction due to leukotriene D4 (LTD4); assay: Inhibition of bronchoconstriction due to intravenous LTD4 in guinea pigs (Konzett-Rossler); type: in vivo, guinea pig (Hartley strain); conditions: for % Inhibition, Experiment 1: 2 minutes before LTD4 10 μg/kg i.v.; for % Inhibition, Experiment 1 / % Inhibition, Experiment 2: 30 seconds after LTD4; for % Inhibition, Experiment 2: 30 minutes before LTD4 10 μg/kg i.v.; for minimal effective dose: Cavia porcellus, iv, dose causing statistically significant difference vs control group, significance level <5%; for inhibitory effect upon the bronchoconstriction compared with Control compound-1 (in words): LTD4, i.v.
Experimental: Guinea pigs of Hartley strain, both male and female, with body weights about 400 g were assigned to groups of 6 individuals, and the bronchoconstriction due to LTD4 were measured according to the method of Konzett-Rossler, [Konzett, H. and Rossler, R.: Naunyn-Schmiedebergs Archiv Fur Experimentelle Pathologie und Pharmakologie 195, 71-74 (1940)]. Each guinea pig was fixed in supine position under urethane anesthesia (1.5 g/kg, intraperitoneal) and the trachea was incised and connected to an artificial respiration apparatus, Rodent Respirator Model 680 [Harvard Apparatus Company, U.S.A.] via a cannula. The branch tube of this tracheal cannula was connected to Bronchospasm Transducer Model 7020 [Ugobasil Biological Research Apparatus, Italy]. Under the conditions of 5 to 7 ml of air per stroke, 70 strokes per minute and a lung loading pressure of 10 cmH2 O, the volume of overflowing air was recorded on Rectigraph-8S (Sanei Sokki Ltd., Japan) via a transducer. After administration of gallamine triethiodide (1 mg/kg, i.v.), 10 μ g/kg of histamine.2HCl was intravenously administered to investigate the response of the animal. Then, a solution of LTD4 in physiological saline (10 μg/kg) was intravenously administered and the bronchoconstriction elicited thereby was recorded for 15 minutes. Two minutes before LTD4 loading, compound (I)-A-1 was intravenously administered in a volume of 0.1 ml per 100 g body weight. Compound (I)-A-1 and LTD4 were administered through a cannula inserted into the jugular vein.
The compound (I)-A-1 was used as dissolved in physiological saline containing sodium hydrogen carbonate, and LTD4 was taken from a stock stored in methanol (1 mg/1 ml methanol) at -70° C.
The bronchoconstriction induced by intravenous administration of 10 μg/kg of LTD4 as given 2 minutes after the administration of physiological saline was maximal at the time of 30 seconds after the administration of LTD4 and, since then, was rapidly attenuated to about 50% at the time of 2 minutes but lasted till 15 minutes. Assuming that the response at complete obstruction is 100%, the values at 30 seconds and 15 minutes were 47.4±6.9% (n=6, Mean±S.E.) and 19.4±2.8% (Mean±S.E.), respectively (S.E.: standard error).
Then the present inventors studied the antagonistic action of the compound (I)-B against SRS-A using a synthetic LTD4 in the manner described on the compound (I)-A.
In each case, the bronchoconstriction following intravenous administration of 10 μg/kg of LTD4 at 2 or 30 minutes after the administration of physiological saline reached a maximum 30 seconds after the administration of LTD4, and then decreased to about 50% at 2 minutes after the administration of LTD4. The response continued for 15 minutes after the administration of LTD4. Repeated experiments using 6 animals per group gave mean degrees of maximum bronchoconstriction (30-second values) of 52.2-67.1% and 54.7-70.1%, respectively, as compared with the state of complete obstruction (100%). In experiment 1, the test compounds (I)-B-1, (I)-B-2 and Control compound-1 were each intravenously administered at two minutes before the administration of LTD4 and inhibitory effect on the bronchoconstriction was examined. The minimum effective doses (causing statistically significant differences as compared with the control group; significance level <5%) were 0.313, 0.313 and 5 mg/kg, respectively. The corresponding inhibition percentages were 41, 52 and 56%, respectively. In experiment 2, the test compounds were intravenously administered 30 minutes before the administration of LTD4 and the effect on the above response was examined. The minimum effective doses were 5, 5, and 20 mg/kg, respectively.
The test compounds were intravenously administered 2 minutes before the
intravenous administration of 10 μg/kg of LTD4.
The test compounds were intravenously administered 30 minutes before the
Each value was calculated from the volume (in percentage) of air […]

Acute toxicity in mice = type: in vivo, mouse (Jcl:ICR strain); conditions: 500 mg/kg oral; for Autopsy findings: after 7 days; for symptoms attributable to compound after oral administration: male mice
Experimental: Five 5-week-old male mice of Jcl:ICR strain, weighing 26.0 to 30.5 g, were used. Compound (I)-A-1 was suspended in a 5% solution of gum arabic and administered orally by gastric gavage at the level of 0.2 ml per 10 grams body weight.
Five 5-week-old male mice of Jcl:ICR strain, weighing 26.0 to 30.5 g, were used. Compound (I)-B-1 or (I)-B-2 was suspended in a 5% solution of gum arabic and administered orally by gastric gavage at the level of 0.2 ml per 10 grams body weight.

[3] = tested on: antigen-induced bronchoconstriction; assay: Antigen-induced bronchoconstriction in sensitized guinea pigs; type: in vivo, guinea pig (Hartley strain); conditions: for % Inhibition: 2 minutes prior to antigen (EA 1 mg/kg i.v.), one minute after antigen; for minimal effective dose: Cavia porcellus, iv, 2 minutes prior to antigen administration, read-out: minimum effective dose; for inhibitory effect on the antigen-induced bronchoconstriction compared with Control compound-1 (in words): i.v., 2 minutes prior to antigen
Experimental: According to the method of Orange and Moore [Orange, R. P. and Moore, E. G., Journal of Immunology, 116, 392-397 (1976)], Hartley-strain male guinea pigs weighing about 350 g were sensitized by intraperitoneal administration of 1 ml of an emulsion composed of 0.5 ml of physiological saline containing 1 mg of egg alubumin (EA) and 0.5 ml of Freund's complete adjuvant (Difco, USA). Three weeks after the sensitization, the serum antibody levels in the sensitized guinea pigs were determined by the 3-hour PCA reaction in guinea pigs and those guinea pigs that gave positive results in the PCA reaction with 1,000-fold diluted serum samples therefrom were used as the sensitized aminals. Using the Konzett-Rossler method as mentioned under the above paragraph (i), the bronchoconstriction due to the antigen-antibody reaction was induced by intravenous administration of 1 mg/kg of the antigen EA instead of LTD4, and recorded.
The bronchoconstriction in the control group as induced by antigen administration 2 minutes after the intravenous administration of physiological saline reached a maximum one minute after the intravenous administration of the antigen. Gradual recovery followed and the pretreatment state was almost restored in 15 minutes after the induction. Repeated experiments using 6 animals per group gave mean degrees of maximum bronchoconstriction (one-minute values) of 72.8-83.3% as compared with the state of complete obstruction (100%). The test compounds (I)-B-1, (I)-B-2 and Control compound-1 were each intravenously administered 2 minutes prior to antigen administration and the inhibitory effect on the bronchoconstriction was examined. The minimum effective doses were 5, 5 and 20 mg/kg, respectively, and the corresponding inhibition percentages were 51, 52 and 64%, respectively.
The test compounds were intravenously administered 2 minutes prior to
intravenous administration of the antigen.
Each value was calculated from the volume (in percentage) of air
overflowing from the respiratory tract at the time when the response was
maximal, i.e. one minute after administration of the antigen.

[4] = 1.25 mg/kg i.v., **P<0.01 for (I)-B-1 and (I)-B-2
[5] = 5 mg/kg i.v., P<0.001 for (I)-B-1 and Control compound-1, P<0.01 for (I)-B-2
[6] = 5 mg/kg i.v., **P<0.01 for (I)-B-1 and (I)-B-2
[7] = 20 mg/kg i.v., P<0.001 for (I)-B-1 and (I)-B-2, P<0.01 for Control compound-1
[8] = 30 minutes before LTD4, read-out: minimum effective dose, experiment 2
[9] = two minutes before LTD4, read-out: minimum effective dose, experiment 1
[10] = 5 mg/kg i.v., p<0.001 for (I)-B-1, p<0.01 for (I)-B-2

Compound	IC50 [1]	% Inhibition, Experiment 1 ([2]; 0.313 mg/kg i.v., *P<0.05)	% Inhibition, Experiment 1 [2, 4]	% Inhibition, Experiment 2 ([2]; 1.25 mg/kg i.v.)	% Inhibition, Experiment 1 [2, 5]	% Inhibition, Experiment 2 [2, 6]	% Inhibition, Experiment 2 [2, 7]	minimal effective dose [2, 8]	minimal effective dose [2, 9]	inhibitory effect upon the bronchoconstriction compared with Control compound-1 (in words) [2]	Autopsy findings (Acute toxicity in mice)	symptoms attributable to compound after oral administration (Acute toxicity in mice)	% Inhibition ([3]; 1.25 mg/kg i.v.)	% Inhibition [3, 10]	% Inhibition ([3]; 20 mg/kg i.v., ***p<0.001)	minimal effective dose [3]	inhibitory effect on the antigen-induced bronchoconstriction compared with Control compound-1 (in words) [3]	% Inhibition, Experiment 1 ([2]; 20 mg/kg i.v., ***P<0.001)
CCCc1c(OCCCOc2ccc(-c3nnn[nH]3)cc2Cl)ccc(C(C)=O)c1O [Compound (I)-A-3, 1-(4-acetyl-3-hydroxy-2-n-propylphenoxy)-3-[2-chloro-4-(tetrazol-5-yl)phenoxy]propane]	70 nM	–	–	–	–	–	–	–	–	–	–	–	–	–	–	–	–	–
CCCc1c(OCCCOc2cccc(-c3nn[nH]n3)c2)ccc(C(C)=O)c1O [Control compound-2, reference compound]	680 nM	–	–	–	–	–	–	–	–	–	–	–	–	–	–	–	–	–
CCCc1c(OCC(O)COc2ccc(-c3nn[nH]n3)cc2Br)ccc(C(C)=O)c1O (stereo not shown) [Compound (I)-A-2, 2-hydroxy-3-propyl-4-[2-hydroxy-3-[2-bromo-4-(tetrazol-5-yl)phenoxy]propoxy]acetophenone]	19 nM	–	–	–	–	–	–	–	–	–	–	–	–	–	–	–	–	–
CCCc1c(OCCCOc2ccc(C(=O)O)cc2Cl)ccc(C(C)=O)c1O [Compound (I)-B-2, 4-[3-(4-acetyl-3-hydroxy-2-n-propylphenoxy)propoxy]-3-chlorobenzoic acid]	–	52%	77%	10%	79%	42%	66%	5 mg/kg	0.313 mg/kg	superior to Control compound-1	did not reveal any abnormalities	no symptoms	20%	52%	88%	5 mg/kg	superior to Control compound-1	–
CCCc1c(OCC(O)COc2ccc(C(=O)O)cc2Cl)ccc(C(C)=O)c1O (stereo not shown) [Compound (I)-B-1, 4-[3-(4-acetyl-3-hydroxy-2-n-propylphenoxy)-2-hydroxypropoxy]-3-chlorobenzoic acid]	–	41%	51%	–	84%	42%	96%	5 mg/kg	0.313 mg/kg	superior to Control compound-1	did not reveal any abnormalities	no symptoms	6%	51%	75%	5 mg/kg	superior to Control compound-1	–
CCCc1c(OCCCOc2ccc(C(=O)O)c(O)c2)ccc(C(C)=O)c1O [Control compound-1, reference compound]	420 nM	–	14%	–	56%	14%	35%	20 mg/kg	5 mg/kg	–	–	–	12%	16%	64%	20 mg/kg	–	87%
